Values joined by “and” are separate entries in the source; they are usually repeats but may differ in a detail not shown here. Identical values can stand only once. Like-named read-outs stand apart in the source and are kept apart here.
Tests used:
clinical = conditions: human, plasma, po, 300 mg, fasted
Experimental: (§1) Safety observations included vital signs, physical examination, clinical laboratory tests, ECGs, and adverse event reporting. Blood and urine samples were collected pre-dose and for 72 hours post-dose to assess the pharmacokinetics.

healthy volunteers [1] = assay: clinical
Experimental: as §1

healthy volunteers [2] = system: healthy volunteers
Experimental: The first panel was administered a singe dose of 50 mg, followed 48 hours later by 4½ days of multiple dosing (twice daily) at 50 mg Q12 hours. The second panel was administered a singe dose of 100 mg, followed 48 hours later by 4½ days of multiple dosing (twice daily) at 100 mg Q12 hours. Safety observations included vital signs, physical examination, clinical laboratory tests, ECGs, and adverse event reporting. Blood samples were collected pre-dose on Day 1 and serially for 48 hours post-dose to assess the single-dose pharmacokinetics.

in vivo [3] = conditions: both, minipig
minipigs [4] = conditions: 6 months
minipigs [5] = system: minipigs
in vivo [6] = conditions: male, dog, po
Experimental: Three groups of four non-naïve male beagle dogs were used in the study. […] Doses were administered orally by gavage and clinical observations were taken continuously following dosing: hourly for the first four hours, and then twice daily cage-side observations for the duration of the inter-dose or post-dose interval. Observations were made of clinical signs, mortality, injury and availability of food and water. Animals were fasted for 24 hr prior to dosing. Dogs in each group were exposed to only one drug, or the combination; each dose was administered only once, with a subsequent dose administered after a recovery period of 4 days.

D5 dopamine receptor = D5 dopamine receptor (Homo sapiens, UniProt P21918)
Chain of D5 dopamine receptor (P21918 whole entry): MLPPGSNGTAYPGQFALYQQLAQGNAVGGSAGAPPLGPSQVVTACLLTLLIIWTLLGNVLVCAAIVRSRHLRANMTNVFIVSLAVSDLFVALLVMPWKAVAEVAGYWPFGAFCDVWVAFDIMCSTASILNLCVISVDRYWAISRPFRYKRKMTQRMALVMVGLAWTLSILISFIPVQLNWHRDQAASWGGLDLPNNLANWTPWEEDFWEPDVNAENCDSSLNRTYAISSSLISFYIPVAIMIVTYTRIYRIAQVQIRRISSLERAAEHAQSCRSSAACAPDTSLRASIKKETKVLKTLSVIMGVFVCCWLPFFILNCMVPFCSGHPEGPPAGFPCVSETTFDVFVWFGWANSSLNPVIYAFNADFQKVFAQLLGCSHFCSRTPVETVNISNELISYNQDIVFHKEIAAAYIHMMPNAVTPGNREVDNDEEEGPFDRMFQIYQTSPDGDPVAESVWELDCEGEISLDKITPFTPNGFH
Experimental: (§2) These concentrations were tested in cell lines expressing select human cloned dopamine receptors (D2S, D3).

D1 dopamine receptor = D1 dopamine receptor (Homo sapiens, UniProt P21728)
Chain of D1 dopamine receptor (P21728 whole entry): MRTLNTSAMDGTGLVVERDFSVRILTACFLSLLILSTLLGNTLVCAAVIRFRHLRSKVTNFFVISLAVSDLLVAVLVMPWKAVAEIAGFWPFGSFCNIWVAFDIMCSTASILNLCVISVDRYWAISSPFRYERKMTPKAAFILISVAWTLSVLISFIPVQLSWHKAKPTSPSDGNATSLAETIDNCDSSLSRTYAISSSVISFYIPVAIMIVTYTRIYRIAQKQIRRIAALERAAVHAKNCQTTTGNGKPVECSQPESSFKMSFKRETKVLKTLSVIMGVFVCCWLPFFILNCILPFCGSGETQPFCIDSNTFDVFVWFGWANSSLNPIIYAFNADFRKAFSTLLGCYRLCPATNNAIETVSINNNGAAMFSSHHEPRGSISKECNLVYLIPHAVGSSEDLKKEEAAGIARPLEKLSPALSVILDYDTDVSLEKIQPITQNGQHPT
Experimental: as §2

[7] = single 150 mg oral dose, fasted
[8] = single 300 mg oral dose, fasted
[9] = Day 1, 100 mg oral dose, fasted
[10] = Day 7, 50 mg Q12H on Days 3 through 6 and a single dose on Day 7, fasted
[11] = Day 7, 100 mg Q12H on Days 3 through 6 and a single dose on Day 7, fasted

## CCCN[C@@H]1CCc2nc(N)sc2C1 [(R)-pramipexole, (6R)-4,5,6,7-tetrahydro-N6-propyl-2,6-benzothiazole-diamine]
clinical; AUC(0-t) (mean ± SD), single 300 mg oral dose
  AUC(0-t): 8340 ng·h/mL
clinical; AUC(inf) (mean ± SD), single 300 mg oral dose
  AUC(0-inf): 8620 ng·h/mL
clinical; Vz/F (mean ± SD), single 300 mg oral dose
  Vd/F: 346 ± 98.5 L
clinical; mean exposure (AUC0-∞), single oral 300 mg
  AUC(0-inf): 8620 ng·h/mL
Healthy volunteers [1]; 50 mg SD, Fasted
  CL/F (mean ± SD): 706 ± 182 mL/h
Healthy volunteers [1]; 150 mg SD, Fasted
  CL/F (mean ± SD): 692 ± 183 mL/h
Healthy volunteers [1]; 150 mg SD, second 150 mg line, Food printed Fasted
  CL/F (mean ± SD): 774 ± 165 mL/h
Healthy volunteers [1]; 300 mg SD, Fasted
  CL/F (mean ± SD): 659 ± 260 mL/h
Healthy volunteers [1]; across dose levels
  urinary excretion of unchanged drug, share of drug elimination: approximately 70%
Healthy volunteers [1]; single 50 mg oral dose, fasted
  CL/F (mean ± SD): 42400 ± 10900 mL/h
  Fe (mean ± SD): 70.7 ± 10.4 % Dose
  Ue (mean ± SD): 35.3 ± 5.19 mg and 35.3 ± 5.19 ^ mg
  λz (mean ± SD): 0.1064 ± 0.0171 h⁻¹
Healthy volunteers [1]; [7]
  CL/F (mean ± SD): 41500 ± 11000 mL/h
  Fe (mean ± SD): 40.3 ± 4.69 % Dose
  Ue (mean ± SD): 60.5 ± 7.04 mg and 60.5 ± 7.04 ^ mg
  λz (mean ± SD): 0.1001 ± 0.0087 h⁻¹
Healthy volunteers [1]; single 150 mg oral dose, fed
  CL/F (mean ± SD): 46400 ± 9900 mL/h
  λz (mean ± SD): 0.1152 ± 0.0256 h⁻¹
Healthy volunteers [1]; single 150 mg, fed versus fasted
  effect of a high fat/high calorie meal on absorption and elimination: essentially no effect
Healthy volunteers [1]; [8]
  CL/F (mean ± SD): 39500 ± 15600 mL/h
  Fe (mean ± SD): 65.8 ± 9.33 % Dose
  Ue (mean ± SD): 198 ± 28.0 mg and 198 ± 28.0 ^ mg
  λz (mean ± SD): 0.1151 ± 0.0309 h⁻¹
Healthy volunteers [1]; single oral 50, 150, 300 mg
  time of maximum concentration post-dose: approximately 2 hours
Healthy volunteers [1]; single oral doses of 50, 150, 300 mg
  safety and tolerability: safe and well-tolerated
Healthy volunteers [2]; 50 mg Q12H
  increase of AUC(0-12) from Day 1 to Day 7: 40%
  increase of Cmax from Day 1 to Day 7: 37%
Healthy volunteers [2]; 50 mg Q12H (Day 1), Fasted
  CL/F (mean ± SD): 571 ± 107 mL/h
Healthy volunteers [2]; 50 mg Q12H (Day 7), Fasted
  CL/F (mean ± SD): 585 ± 81.6 mL/h
Healthy volunteers [2]; 100 mg Q12H
  increase of AUC(0-12) from Day 1 to Day 7: 38%
  increase of Cmax from Day 1 to Day 7: 24%
Healthy volunteers [2]; 100 mg Q12H (Day 1), Fasted
  CL/F (mean ± SD): 665 ± 107 mL/h
Healthy volunteers [2]; 100 mg Q12H (Day 7), Fasted
  CL/F (mean ± SD): 684 ± 76.1 mL/h
Healthy volunteers [2]; Day 1, 50 mg oral dose, fasted
  AUC(0−12) (mean ± SD): 1,035 ± 121 h · ng/mL
  AUC(0−t) (mean ± SD): 1,463 ± 280 h · ng/mL
  AUC(inf) (mean ± SD): 1,502 ± 280 h · ng/mL
  CL/F (mean ± SD): 34300 ± 6420 mL/h
  λz (mean ± SD): 0.1132 ± 0.0230 h⁻¹
Healthy volunteers [2]; [9]
  AUC(0−12) (mean ± SD): 1,776 ± 260 h · ng/mL
  AUC(0−t) (mean ± SD): 2,545 ± 497 h · ng/mL
  CL/F (mean ± SD): 39900 ± 6420 mL/h
  λz (mean ± SD): 0.1073 ± 0.0161 h⁻¹
Healthy volunteers [2]; [10]
  AUC(0-12) (mean ± SD): 1,449 ± 221 h · ng/mL
  CL/F (mean ± SD): 35100 ± 4900 mL/h
  λz (mean ± SD): 0.1025 ± 0.0186 h⁻¹
Healthy volunteers [2]; [11]
  AUC(0-12) (mean ± SD): 2,465 ± 299 h · ng/mL
  CL/F (mean ± SD): 41000 ± 4570 mL/h
  λz (mean ± SD): 0.0894 ± 0.0117 h⁻¹
Healthy volunteers [2]; humans, total daily dose 500 mg as 250 mg Q12H
  projected steady-state exposure (AUC): approximately 7,000 h*ng/mL
Healthy volunteers [2]; multiple oral doses of 50 and 100 mg twice daily
  safety and tolerability: safe and well-tolerated
In vivo [3]
  NOAEL at 3 months: 50 mg/kg
Minipigs [4]
  mortality and clinical observations between the 13-week and 26-week sacrifices: no mortalities attributed to test article or significant clinical observations
Minipigs [5]; both, minipig, in vivo, 75 mg/kg, 14 days
  incidence of emesis (at least one episode): 5 of 8
Minipigs [5]; minipigs, 2 weeks (14 days)
  NOAEL: greater than or equal to 75 mg/kg
In vivo [6]
  MTD at 4 days: 75 mg/kg
  NOAEL at 4 days: 25 mg/kg
D5 dopamine receptor
  interaction with D5 dopamine receptor: no significant interaction
D1 dopamine receptor
  interaction with D1 dopamine receptor: no significant interaction

Reference: patent publication US9849116B2 (KNOPP BIOSCIENCES LLC, priority 2008, dated 2017)
